# Results as given in PMC7470027, “Synthesis and structure-activity relationships of novel 5-(hydroxamic acid)methyl oxazolidinone derivatives as 5-lipoxygenase inhibitors” (Journal of Enzyme Inhibition and Medicinal Chemistry, 2020).
# What was measured:
# [1] = test system: 5-LO product LTC4 from allergen/IgE-activated bone marrow-derived mouse mast cells (BMMC); assay: Inhibition of 5-LO product LTC4 from allergen/IgE-activated bone marrow-derived mouse mast cells (BMMC); type: cell-based; settings: Mus musculus; anti-DNP IgE/DNP-BSA-activated BMMC; 95% confidence interval in brackets; read-out: Mouse mast cell LTC4 IC50 (CI)
# Protocol: Bone marrow-derived mast cells (BMMC) were generated from pathogen-free 5 to 7-weeks-old male Balb/c mice according to the method of Davis et al.[28]. Essentially, bone marrow cells were obtained by flushing the femoral bone marrow and the recovered cells cultured in RPMI 1640 medium supplemented with 10% FBS, 100 U/ml penicillin, and 100 µg/ml streptomycin, 25 mM HEPES, 1.0 mM sodium pyruvate, 0.1 mM nonessential amino acids, 0.0035% 2-mercaptoethanol, and 30 ng/ml mouse recombinant IL-3, with culture medium, replaced every 2 days. Cells were used after 4–8 weeks of culture, by which time at least 97% of the cells would have differentiated into mast cells, as routinely obtained in our laboratory.
# The generated BMMCs were seeded at 5 × 10^4 cells/well in a 96-well flat-bottom culture plate and passively sensitised overnight with 0.5 µg/ml anti-DNP monoclonal IgE antibody. The cells were then washed twice to remove any unbound antibody and subsequently resuspended in reaction buffer (135 mM NaCl, 5 mM KCl, 1.8 mM CaCl2, 1 mM MgCl2, 5.6 mM glucose, 0.05% BSA and 20 mM HEPES, pH 7.4). They were then pre-incubated with the test compounds (0.001 − 30 μM) or the solvent (0.05% DMSO) for 15 min before being stimulated with the specific antigen, DNP-BSA (10–30 ng/ml). After 30 min incubation at 37 °C, the amount of LTC4 released into the supernatant was determined by ELISA as described below.
# Appropriately diluted supernatants were assayed for the released products – LTs (LTB4 and LTC4), by the enzyme immunoassay (EIA) method using assay kits supplied by R&D Systems (Minneapolis, MN) and following the manufacturer’s instructions.
# (§1) All data were analysed using GraphPad Prism software (GraphPad Software, San Diego, CA). […] Differences between experimental groups were first analysed by one-way ANOVA, followed by Bonferroni’s post-hoc test. A p-value of less than 0.05 was taken as statistically significant.
# [2] = target: T1, recombinant human 5-LO (Homo sapiens, UniProt P09917); assay: Direct inhibition of 5-LO activity in a cell-free assay (H2DCF-DA fluorescence); type: biochemical; settings: cell-free, recombinant human 5-LO; 95% confidence interval in brackets
# T1 sequence (P09917 1-674): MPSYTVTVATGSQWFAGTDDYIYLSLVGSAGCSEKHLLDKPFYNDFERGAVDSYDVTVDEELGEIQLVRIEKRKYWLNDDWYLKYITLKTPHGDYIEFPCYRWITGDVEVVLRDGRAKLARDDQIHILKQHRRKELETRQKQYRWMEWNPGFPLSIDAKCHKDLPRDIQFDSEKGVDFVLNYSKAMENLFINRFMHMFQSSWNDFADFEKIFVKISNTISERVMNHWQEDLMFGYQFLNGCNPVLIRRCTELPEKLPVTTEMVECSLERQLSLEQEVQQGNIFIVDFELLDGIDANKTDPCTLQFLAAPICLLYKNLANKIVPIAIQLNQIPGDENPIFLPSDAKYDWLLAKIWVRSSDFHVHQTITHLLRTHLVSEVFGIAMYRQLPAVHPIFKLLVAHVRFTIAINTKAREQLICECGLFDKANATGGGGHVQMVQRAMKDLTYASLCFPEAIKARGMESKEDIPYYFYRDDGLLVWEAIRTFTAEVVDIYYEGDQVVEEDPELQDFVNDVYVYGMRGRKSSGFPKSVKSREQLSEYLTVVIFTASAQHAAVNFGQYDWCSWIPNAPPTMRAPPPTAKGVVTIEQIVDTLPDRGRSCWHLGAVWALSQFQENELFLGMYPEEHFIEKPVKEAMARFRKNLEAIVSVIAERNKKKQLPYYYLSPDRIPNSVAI
# Protocol: The assay was based on the oxidation of the dye 2′,7′-dichlorodihydrofluorescein diacetate (H2DCF-DA) to a highly fluorescent product by 5-LO enzymatic products. H2DCF-DA (60 µM) was first pre-cleaved by incubating with 450 mU/ml recombinant human 5-LO enzyme in Tris buffer (containing 50 mM Tris, pH = 7.5, 2 mM EDTA, 2 mM CaCl2, 1 mM DTT and 0.6 U/ml glutathione peroxidase) for 10 min at room temperature. […] After 10 min incubation at room temperature, the reaction was started with the addition of 50 µl of substrate solution (Tris buffer containing 20 µM ATP and 20 µM arachidonic acid (AA). After a further 20 min, the reaction was terminated with 100 µl acetonitrile. Fluorescence was read at 500 nm excitation and 520 nm emission, with Novostar^R microplate reader (BMG Labtech, Offenburg, Germany). Appropriate controls, including 100 µM nordihydroguaiaretic acid (NDGA), were included to isolate only the 5-LO-attributable, NDGA-inhibitable RFU values.
# as §1
# [3] = test system: leukotriene (LT) biosynthesis / 5-LO; assay: Overall activity across the four in vitro test systems (three cell-based LT release assays and 5-LO)
# Protocol: Furthermore, in order to confirm that the in vitro inhibitory activity of the compounds was not due to the direct toxic effects on the cells, the effect of the compounds on the viability of isolated human monocytes after 3 h and 24 h treatment was performed. Finally, in vivo anti-inflammatory studies were performed using the zymosan-induced peritoneal inflammation model in mice, which is a well-known model in which the LTs are known to play a critical role[26].
# The inhibitory activity data for the tested compounds obtained in three cell-based in vitro test systems - LTB4 release from human whole blood, LTC4 release from isolated human monocytes and LTC4 release from IgE/antigen-activated mouse mast cells, are shown in Table 1. Similar data on the direct inhibitory effect on the enzymatic activity of recombinant human 5-LO, together with the calculated Clog P (log of partition coefficient) values, which is an indication of the lipophilicity of each compound, are also shown in Table 1.
# [4] = test system: zymosan-induced peritoneal inflammation; assay: Zymosan-induced peritoneal inflammation model in mice; type: in vivo, mouse; settings: for Inhibition of total LTC4 content of the peritoneal lavage fluid: p < 0.001 vs zymosan plus vehicle
# Protocol: Female Balb/c mice 6 to 8-weeks-old obtained from the Animal Resources Centre of the Health Sciences Centre, Kuwait University, were used. They were maintained under temperature-controlled conditions with an artificial 12-h light/dark cycle and allowed standard chow and water ad libitum. The study was carried out in compliance with the Regulations for the Use of Laboratory Animals in the Health Sciences Centre, Kuwait University, and complied with the National Institute of Health guide for the care and use of laboratory animals (NIH Publication # 8023, revised 1978). The zymosan-induced peritonitis model - a recognised LT-mediated inflammatory reaction, was used. […] After 30 min, all groups were injected intraperitoneally with 0.2 ml of activated zymosan (2 mg/ml) except the control group that received 0.2 ml PBS. After 2 h, all animals were killed, and the peritoneal exudate collected by washing the cavity with 3 ml of heparinised (10 IU/ml) PBS. Cells in the exudate were recovered by centrifugation and counted in a haemocytometer while the supernatant volume was recorded and then stored frozen at −78 °C until used for the determination of LTC4 by ELISA as detailed above.
# [5] = 10 mg/kg subcutaneously 30 min before zymosan
smiles,measurement,setting,value
"CCCCCCC(=O)N(O)C[C@H]1CN(c2ccc(N3CCOCC3)c(F)c2)C(=O)O1 [PH-249, (R)-N-((3-(3-fluoro-4-morpholinophenyl)-2-oxooxazolidin-5-yl)methyl)-N-hydroxyheptanamide]",IC50,[1],1.3 µM
same,IC50,[2],1.9 µM
same,Activity across the in vitro test systems (in words),[3]; cell-based systems and cell-free 5-LO,active in all four test systems
same,IC50,"[3]; summary statements, in vitro test systems, read-out: IC50 (test system not specified / across test systems)",< 1 µM
same,Inhibition of cellular infiltration (total cellular content of peritoneal lavage),[4]; [5],only the inhibition by the higher dose reached statistical significance
same,Inhibition of total LTC4 content of the peritoneal lavage fluid,[4]; [5],highly significant inhibition
same,Inhibition of total LTC4 content of the peritoneal lavage fluid,[4]; 30 mg/kg subcutaneously 30 min before zymosan,highly significant inhibition
same,Inhibition of cellular infiltration (total cellular content of peritoneal lavage),"[4]; 30 mg/kg subcutaneously 30 min before zymosan, p < 0.01 vs zymosan plus vehicle",reached statistical significance
